# Data published in US20080069785A1, “PEST-CONTROL COMPOSITIONS, AND METHODS AND PRODUCTS UTILIZING SAME” (priority 2004, published 2008).
# “And” between values parts separate entries of the source, which are not always exact repeats. Equal values may be shown once.
# Key:
# [1] = test system: Eastern subterranean termite, Reticulitermes flavipes; assay: Termite direct application test (Example 20); type: in vivo; conditions: 1 uL onto the back or thorax
# Description: In this test, in addition to water as a negative control, a positive control, in the form of the commercially available pesticide Raid® in also included. The method in this test simply involved pippetting 1 uL of the formulation onto the back or thorax of the Eastern subterranean termite, Reticulitermes flavipes, and recording the time to death. This test was performed on Mar. 13, 2007. The formulations used in the test were: (a) Raid®, a commercially available pesticide, (b) Undecanone, (c) BioUD™10, (d) BioUD™5, (e) Soy Methyl Ester (SME), and (f) water as a negative control.
# [2] = test system: adult German cockroaches, Blattella germanica; assay: Direct application toxicity test, comparison of insecticides including BioUD 10 (Table 23); type: in vivo; conditions: 10 μL; adult female (F); individual cockroaches
# Description: Ten μL of BioUD™10, pure Undecanone, or Raid® were separately applied to the backs (thorax and wings) of adult German cockroaches, Blattella germanica. Insects were separately placed into FLUON®-treated diet cups (Vol.=30 mL, lower diam.=3 cm, height=4 cm) to prevent escape of treated specimens.
smiles,measurement,setting,value
"CCCCCCCCCC(C)=O [Undecanone, 2-Undecanone]","Time-to-death (sec), mean",[1],171.5 s
same,Time-to-death,[1]; individual termite,157 s and 389 s and 68 s and 174 s and 146 s
same,Time-to-death,[2],47 s and 46 s and 1200 s and 57 s
